Tests used:
[1] = tested on: Cu,Zn SOD (human SOD); experiment: Mass spectrometric assay of mature/immature SOD in CNS tissue of treated CCS×SOD^WT transgenic mice; format: in vivo; conditions: CSS×SOD^WT transgenic mice; for increase in mature SOD compared to untreated SOD^WT mice: FIG. 4
Experimental: Tissue Preparation for SOD and Cytochrome c Oxidase assays—Whole brains and spinal cords were rapidly dissected from euthanized transgenic mice, immediately frozen in liquid nitrogen, and then stored at −80° C. until use. To prepare brain tissue for mass spectrometry or cytochrome c oxidase assay, frozen brains were first placed on a plate on top of a slab of dry ice so that the brittle frozen tissue could warm to a temperature that allowed sectioning with a razor blade (approx. −10° C.). Motor cortex and surrounding cerebrum was then sectioned to a thickness of approximately 1 mm with a razor blade. A 500 μm biopsy needle was used to isolate three ˜250 μg punches from each mouse tissue, which provided technical replicates for mass spectrometry and cytochrome c oxidase examples. Tissue punches were weighed using a Cahn 25 Automatic Electrobalance (Cerritos, CA, USA) with a sensitivity of ±0.1 μg. Tissue punches were homogenized for 12 seconds using a VWR Handheld cordless motorized homogenizer to a concentration of 5 μg tissue/μl of homogenization buffer. Homogenization buffer (made fresh daily) was 10 mM ammonium acetate, pH 5.0-5.1. For SOD measurements, 300 nM bovine SOD (Sigma) was added as an internal standard. The ratio of human SOD to the bovine SOD internal standard was used to calculate the concentration of human SOD detected in mouse tissue. After homogenizing, samples were centrifuged for 2 minutes at 16000×g at 4° C. in an Eppendorf 5415 R centrifuge to pellet cell debris. Supernatant was transferred to a clean tube for mass spectrometry or cytochrome c oxidase assays. […]
An LTQ-FT Ultra hybrid linear ion trap-Fourier transform ion cyclotron resonance mass spectrometer (Thermo, San Jose, Calif.) with a Finnigan Ion Max API source configured for electrospray ionization (ESI) in positive ion mode was used for all mass spectrometry experiments. All SOD quantitation was performed using the linear ion trap with scan range of 800 to 2000 m/z, which allowed for detection of SOD multiple charge states +9 through +13. […]
Data were quantified in a custom Matlab program. […]

[2] = Elimination of CuATSM in urine; conditions: in vivo
Text: This crystallization and high melting point create issues with forming an orally-active CuATSM compound and prevents the use of solid dispersant methods to formulate the complex for oral delivery. As such, producing formulations having appropriate dosage limits of CuATSM remains a limitation in using this compound therapeutically, particularly in view of CuATSM's propensity to gradually crystalize out of matrices and form insoluble crystals. Large amounts of crystallized CuATSM passes into the bowels, and thereby contributes to gastrointestinal distress. […]
The low reduction potential or, phrased differently, the high copper affinity of the ATSM ligand for cupric ion (in the 2+ ionization state) prevents copper release in most tissues, but allows selective release of copper in hypoxic tissues or in cells with damaged mitochondrial electron transport chains; however, even slight modifications of the CuATSM compound (e.g., removing one or both methyl groups from the carbon atoms of the diimine functional groups) results in rapid copper release that can result in toxicity in SOD ALS models. […] See, for example, FIG. 3, which illustrates reduction (left) versus oxidation standard potentials (right) for ligand components (as determined in anhydrous DMSO). […]

[3] = Reduction versus oxidation standard potentials (anhydrous DMSO); format: physicochemical; conditions: relative to CuPhMeTSM; FIG. 3
Text: The low reduction potential or, phrased differently, the high copper affinity of the ATSM ligand for cupric ion (in the 2+ ionization state) prevents copper release in most tissues, but allows selective release of copper in hypoxic tissues or in cells with damaged mitochondrial electron transport chains; however, even slight modifications of the CuATSM compound (e.g., removing one or both methyl groups from the carbon atoms of the diimine functional groups) results in rapid copper release that can result in toxicity in SOD ALS models. […] Continued treatment thus is necessary to provide sufficient copper for CCS to complete the maturation of Cu,Zn SOD. But, such continued treatment also has the potential to cause toxicity due to greater copper intake. Furthermore, given the negative reduction potential of CuATSM, it is very difficult to reduce, which is reflected in the slow efficacy in replenishing SOD and COX extending over weeks. As a consequence, the majority of CuATSM (e.g., >95%) is eliminated in urine with copper still bound. […] See, for example, FIG. 3, which illustrates reduction (left) versus oxidation standard potentials (right) for ligand components (as determined in anhydrous DMSO). […]

[4] = tested on: G93A SOD×CCS mice; experiment: Survival of G93A SOD×CCS mice under treatment; format: in vivo
Experimental: In this example, G93A SOD×CCS mice were treated with 50 mg/kg/day of CuPhMeTSM transdermally starting at 4 days of age. The compound was able to keep six G93A SOD×CCS mice alive for 300 days (n=6). Results are illustrated in FIG. 10.

[5] = tested on: cytochrome c oxidase; experiment: Cytochrome c oxidase assay in brain and spinal cord of treated mice; format: in vivo; conditions: brain (FIG. 7A) and spinal cord (FIG. 7B); dermally with DMSO, 50 mg/kg/day once daily from four days of age, measured at day 21
Experimental: Tissue Preparation for SOD and Cytochrome c Oxidase assays—Whole brains and spinal cords were rapidly dissected from euthanized transgenic mice, immediately frozen in liquid nitrogen, and then stored at −80° C. until use. To prepare brain tissue for mass spectrometry or cytochrome c oxidase assay, frozen brains were first placed on a plate on top of a slab of dry ice so that the brittle frozen tissue could warm to a temperature that allowed sectioning with a razor blade (approx. −10° C.). Motor cortex and surrounding cerebrum was then sectioned to a thickness of approximately 1 mm with a razor blade. […] The ratio of human SOD to the bovine SOD internal standard was used to calculate the concentration of human SOD detected in mouse tissue. […]
Cytochrome c oxidase assay—The assay buffer included 30 uM reduced cytochrome c in 50 mM potassium phosphate buffer pH 7.0 containing 20 μM EDTA and 24 units/ml catalase. The final dilution of reduced cytochrome c stock should yield an absorbance at 550 nm of 0.7. […] To minimize interference from turbidity, the absorbance at 550 nm minus the absorbance at 580 nm was monitored. The change in absorbance was measured for one minute. Then, 2 μl of 100 mM sodium cyanide and the absorbance change was monitored for another 20 seconds. […]

[6] = tested on: juvenile mice; experiment: Effect of free ligands on growth of juvenile mice; format: in vivo
Text: Another limitation is that the ATSM ligand component of the CuATSM complex is pharmacologically active in binding metals and thus can react in potentially undesirable side reactions.

Compound | increase in mature SOD compared to untreated SOD^WT mice [1] | increase in COX activity [5] | effect on growth of juvenile mice [6] | further results
CN=C([S-])N/N=C(C)/C(C)=N/NC([S-])=NC.[Cu+2] [CuATSM] | 13 µM |  |  | fraction eliminated in urine with copper still bound [2]: > 95%; oxidation wave: oxidized more easily than CuPhMeTSM by [3]: ~40 mV
CNC1=NN=C(C)C(c2ccccc2)=NN=C(NC)[S][Cu][S]1 [CuPhMeTSM, copper phenylmethylTSM] | 60 µM | nearly twice the extent of CuATSM |  | decrease in amount of immature SOD ([1]; FIG. 6): decreased most; toxicity from the treatment ([4]; G93A SOD×CCS mice, 50 mg/kg/day transdermally from 4 days of age): no toxicity apparent; time mice were kept alive ([4]; G93A SOD×CCS mice, 50 mg/kg/day transdermally from 4 days of age, n=6): 300 days; mice still alive after receiving treatment ([4]; low expressing G93A SOD mice crossed to CCS overexpressing mice, 50 mg/kg/day after four days of age, FIG. 10): nine out of 11
CN/C(S)=N/N=C/C=N/N=C(\S)NC [GTSM] |  |  | significant delay in growth | 
CN/C(S)=N/N=C/C(C)=N/N=C(\S)NC [PTSM] |  |  | significant delay in growth | 
copper 4-nitrophenylmethylTSM [nitro analog] |  | not as effective as the CuPhMeTSM embodiment |  | 

Reference: patent US12403159B2, “Therapeutic metal complexes and ligands and methods of making and using the same” (Oregon State University, priority 2017, dated 2025)
